Laboratory results from ChEMBL document CHEMBL1201862, “PubChem BioAssay data set” (2004).
The source made the active and inactive calls.

Test system: H9c2;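 note: confirmatory concentration-response retest of ultra-high-throughput screening hits for modulation of myocardial damage; cell death induced by hydrogen peroxide oxidative stress; compound pretreatment for 60 min then peroxide exposure for 2 h; potency is for protecting the cells against peroxide damage rather than for killing them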
Assay: cells
Assay type: functional, cell-based
Conditions: Rattus norvegicus, H9c2, Myocardium

Row | SMILES | IC50
1 | CCOC(=O)COc1cccc(C2NC(=O)c3ccccc3O2)c1 (centres undefined) | 12.7 µM (active)
2 | CCSc1nnc(NC(=O)C2Cc3ccccc3CN2S(=O)(=O)CC)s1 (centres undefined) | 10 µM (active)
3 | N#Cc1ccccc1OCC(=O)Nc1nc(-c2ccccn2)cs1 | > 79 µM (inactive)
4 | Cc1c(O)ccc2c3c(c(=O)oc12)CCC(C)C3 (centres undefined) | > 79 µM (inactive)
5 | O=C(CSc1ccc2nnc(-c3ccc(F)cc3)n2n1)N1CCCc2ccccc21 | > 79 µM (inactive)
6 | Cc1nc(-c2ccccn2)nc(S)c1Cl | > 79 µM (inactive)
7 | CC(=O)Nc1cc(C)nn1-c1nc2ccccc2s1 | 11.6 µM (active)
8 | Sc1nc2ccccc2c2ccccc12 | 31.5 µM (inactive)

Target: T1, Replicative DNA helicase DnaB (Mycobacterium tuberculosis, UniProt P9WMR3)
T1 sequence (P9WMR3 whole entry): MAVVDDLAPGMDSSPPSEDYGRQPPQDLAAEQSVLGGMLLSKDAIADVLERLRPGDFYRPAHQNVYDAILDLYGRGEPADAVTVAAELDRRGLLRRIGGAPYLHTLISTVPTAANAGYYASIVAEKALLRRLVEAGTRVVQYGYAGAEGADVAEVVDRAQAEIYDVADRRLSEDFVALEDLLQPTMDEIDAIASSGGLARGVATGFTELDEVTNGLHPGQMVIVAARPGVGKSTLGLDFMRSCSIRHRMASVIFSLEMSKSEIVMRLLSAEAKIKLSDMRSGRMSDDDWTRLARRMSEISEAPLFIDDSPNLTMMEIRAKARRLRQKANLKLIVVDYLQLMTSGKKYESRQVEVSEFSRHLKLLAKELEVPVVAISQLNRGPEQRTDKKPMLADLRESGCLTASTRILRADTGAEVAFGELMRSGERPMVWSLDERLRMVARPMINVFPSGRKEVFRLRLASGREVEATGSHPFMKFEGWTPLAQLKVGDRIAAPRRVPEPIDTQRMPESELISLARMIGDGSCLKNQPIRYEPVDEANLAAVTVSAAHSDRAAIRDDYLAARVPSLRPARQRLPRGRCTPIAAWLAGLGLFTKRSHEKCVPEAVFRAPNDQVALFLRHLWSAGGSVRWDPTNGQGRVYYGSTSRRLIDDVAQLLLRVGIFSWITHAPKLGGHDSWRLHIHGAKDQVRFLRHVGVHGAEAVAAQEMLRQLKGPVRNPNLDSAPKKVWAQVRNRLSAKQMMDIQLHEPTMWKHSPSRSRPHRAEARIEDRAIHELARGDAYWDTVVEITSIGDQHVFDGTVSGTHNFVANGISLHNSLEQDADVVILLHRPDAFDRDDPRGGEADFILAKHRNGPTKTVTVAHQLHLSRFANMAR
Assay: DnaB intein splicing inhibitors, dose response, biochemical, cell-free fluorescence (AID 449749)
Assay type: functional
Conditions: not given

Row | SMILES | AC50
9 | Oc1cc(-c2ccc(C3CCCCC3)cc2)[nH]n1 | 1.99 µM (active)

Target: T2, Ubiquitin-conjugating enzyme E2 N (Homo sapiens, UniProt P61088);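 note: Dose-response confirmation in a TR-FRET assay detecting UBC13-driven polyubiquitin chain formation, inhibition measured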
T2 sequence (P61088 whole entry): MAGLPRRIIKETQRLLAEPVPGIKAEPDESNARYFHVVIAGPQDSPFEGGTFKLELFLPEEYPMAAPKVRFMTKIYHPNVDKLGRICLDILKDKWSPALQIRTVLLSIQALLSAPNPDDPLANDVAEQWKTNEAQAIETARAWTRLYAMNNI
Assay: not given
Assay type: functional
Conditions: not given

Row | SMILES | IC50
10 | CN(C)CC(O)COc1ccc(C(C)(C)c2ccc(OCC(O)CN(C)C)cc2)cc1 (centres undefined) | > 20 µM (inactive)
11 | CCNC(C(=O)c1c[nH]c2c(CC)cccc12)c1ccccc1 (centres undefined) | > 20 µM (inactive)
12 | O=C1c2cccc3cccc(c23)C(=O)N1Nc1ccccc1 | > 20 µM (inactive)
13 | COc1ccc(CC(=O)N(C)CC(=O)Nc2ccccc2Cl)cc1S(=O)(=O)N1CCOCC1 | > 20 µM (inactive)
14 | CCCCn1c(-c2cccs2)nc2nc3ccccc3nc21 | > 20 µM (inactive)
15 | O=C(NN1C(=O)c2ccc3c4c(ccc(c24)C1=O)CC3)c1ccc(Br)cc1 | > 20 µM (inactive)

Test system: not listed separately
Assay: non-specific 3'UTR reporter inhibition in Clone20-Shn3RL – cell-based, Renilla luciferase, cherry-picked, counter-screen for Shn3 inhibitor project, dose response (AID 624133)
Assay type: functional
Conditions: not given

Row | SMILES | AC50
16 | COc1ccccc1-n1ccnc(SCC(=O)NCc2ccccc2Cl)c1=O | 13 µM (active)
17 | Cc1cc(C)cc(C(=O)NCC(=O)OCC(=O)NCC(F)(F)F)c1 | 9.91 µM (active)

Target: Heat shock protein HSP 90-alpha (Homo sapiens, UniProt P07900)
Assay: not given
Assay type: functional, organism-based
Conditions: not given

Row | SMILES | AC50
18 | Oc1cc(-c2ccc(C3CCCCC3)cc2)[nH]n1 | 8 µM (active)

Target: T3, Protein RecA (Mycobacterium tuberculosis, UniProt P9WHJ3)
T3 sequence (P9WHJ3 whole entry): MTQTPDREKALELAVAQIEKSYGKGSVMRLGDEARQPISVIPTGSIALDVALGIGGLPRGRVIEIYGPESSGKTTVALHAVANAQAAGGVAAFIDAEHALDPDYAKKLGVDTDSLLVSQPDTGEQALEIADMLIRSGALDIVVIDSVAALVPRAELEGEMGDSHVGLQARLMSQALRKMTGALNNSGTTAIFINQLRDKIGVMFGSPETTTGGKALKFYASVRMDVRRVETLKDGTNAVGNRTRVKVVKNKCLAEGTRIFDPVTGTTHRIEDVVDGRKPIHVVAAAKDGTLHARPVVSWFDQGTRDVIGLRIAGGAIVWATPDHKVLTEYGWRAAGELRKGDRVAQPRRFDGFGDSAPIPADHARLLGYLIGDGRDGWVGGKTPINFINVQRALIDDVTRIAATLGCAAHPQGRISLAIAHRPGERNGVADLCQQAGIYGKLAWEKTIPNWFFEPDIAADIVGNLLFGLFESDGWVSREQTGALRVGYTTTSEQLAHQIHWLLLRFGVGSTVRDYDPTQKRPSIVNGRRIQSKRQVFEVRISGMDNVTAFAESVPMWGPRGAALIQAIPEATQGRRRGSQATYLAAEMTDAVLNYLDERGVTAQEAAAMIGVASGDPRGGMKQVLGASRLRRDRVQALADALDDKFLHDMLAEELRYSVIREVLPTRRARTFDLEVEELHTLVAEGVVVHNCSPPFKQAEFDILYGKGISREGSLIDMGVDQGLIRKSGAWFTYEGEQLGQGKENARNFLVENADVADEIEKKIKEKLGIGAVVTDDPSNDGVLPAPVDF
Assay: Fluorescence Cell-Free Homogeneous Dose Retest to Identify Inhibitors of RecA-Intein Splicing Activity. [Related pubchem assays (depositor defined):AID2097, AID2223, AID489010, AID492950]
Assay type: functional
Conditions: not given

Row | SMILES | EC50
19 | Oc1cc(-c2ccc(C3CCCCC3)cc2)[nH]n1 | 1.01 µM (active)
